The record followed here is patent US5332742A, “Renin inhibitors” (Abbott Laboratories, priority 1993, dated 1994).

The target of one experiment is T1, human renal renin (Homo sapiens, UniProt P00797).
T1 construct: human renal renin, free from acid proteolytic activity; from tissue; host or cells: human kidney ('renal')
T1 sequence (P00797 67-406): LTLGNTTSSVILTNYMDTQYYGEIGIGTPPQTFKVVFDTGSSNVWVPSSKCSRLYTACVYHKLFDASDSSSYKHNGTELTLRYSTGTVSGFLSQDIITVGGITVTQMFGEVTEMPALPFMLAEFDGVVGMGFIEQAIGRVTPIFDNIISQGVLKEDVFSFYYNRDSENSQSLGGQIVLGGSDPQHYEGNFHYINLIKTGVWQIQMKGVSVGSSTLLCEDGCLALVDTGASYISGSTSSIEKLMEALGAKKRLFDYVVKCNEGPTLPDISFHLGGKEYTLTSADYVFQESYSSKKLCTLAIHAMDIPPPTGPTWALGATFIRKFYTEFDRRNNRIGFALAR
Briefly: In vitro inhibition of human renal renin (angiotensin I formation measured by radioimmunoassay). In kind it is biochemical. The settings on record: human renal renin with human angiotensinogen, 37 degrees C., pH 6.5. As for the experimental part: At the end of the incubation, the amount of angiotensin I formed is measured by radioimmunoassay and the molar concentration required to cause 50% inhibition, expressed as the IC50 is calculated .

Experiment [1] can be described thus: Mean arterial blood pressure in salt-depleted dogs after i.v. or p.o. dosing. In kind it is in vivo, dog. The conditions noted are these: salt-depleted male beagle dogs; 10 mg/kg i.v. (in D5W) or 10 mg/kg p.o. (in methylcellulose); FIG. 1A. As for the experimental part:
(§1) Male beagle dogs (8-12 kg, Marshall/Hazelton) were converted to a salt-depleted status by dosing on the three consecutive days prior to the experiment with furosemide (Phoenix Pharmaceuticals, 10 mg/kg i.m.) and by placing them on a low sodium diet (approximately 2-5 meq/day; H/D; Hills Pet Products). Prior to the study, each dog was instrumented with an indwelling catheter ana conditioned to stand calmly in a restraining sling for periods of up to 8 hours. On the morning of the experiment, the arteriai catheter was connected to a Sorenson Transpac II® pressure transducer (Abbott Laboratories). For dogs receiving intravenous (i.v.) doses, a catheter (Abbott; 16 ga Venocath) was introduced in a rear leg saphenous vein by venipuncture. For dogs receiving receiving oral (p.o.) doses by garage, an 18 Fr. suction catheter (Mallinckrodt Critical Care) was used. Data samples of systemic hemodynamic variables were acquired by the MI2 computer at 5 minute intervals beginning 90 minutes prior to administration of the test compound and ending 6 hours after dosing. Arterial blood smaples (3.0 ml) to determine plasma drug concentrations and plasma renin activity (PRA) were taken for i.v. doses at -60, -30, 3, 10, 30, 60, 120, 240 and 360 minutes an for p.o. doses at --60, -30, 15, 30, 60, 90, 120, 180 and 360 minutes relative to the time of test compound administration. […]

For the next experiment, the target named is T2, renin (Canis lupus familiaris, UniProt Q6DYE7).
T2 construct: from tissue; host or cells: circulating plasma renin of salt-depleted beagle dogs (in vivo)
T2 sequence (Q6DYE7 66-403): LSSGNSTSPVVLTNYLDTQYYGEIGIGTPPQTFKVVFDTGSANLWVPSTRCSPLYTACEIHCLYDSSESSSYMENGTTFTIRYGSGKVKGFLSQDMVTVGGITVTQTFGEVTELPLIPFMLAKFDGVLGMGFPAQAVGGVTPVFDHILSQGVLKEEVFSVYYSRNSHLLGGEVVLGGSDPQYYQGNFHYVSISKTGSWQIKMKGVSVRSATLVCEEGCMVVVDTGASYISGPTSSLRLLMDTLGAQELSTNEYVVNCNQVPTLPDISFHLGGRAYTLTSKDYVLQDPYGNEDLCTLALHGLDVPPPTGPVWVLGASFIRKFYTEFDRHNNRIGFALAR
Description: Plasma renin activity (PRA) in salt-depleted dogs after i.v. or p.o. dosing. In kind it is in vivo, dog. The conditions noted are these: salt-depleted male beagle dogs; 10 mg/kg i.v. (in D5W) or 10 mg/kg p.o. (in methylcellulose); FIG. 1B. As for the experimental part:
as §1

Turning to `CC(C)C[C@H](O)[C@H](O)[C@H](CC1CCCCC1)NC(=O)[C@H](Cc1cscn1)NC(=O)[C@H](Cc1ccccc1)CS(=O)(=O)N1CCNC(=O)C1` [Example 11F], inhibition at human renal renin was half-maximal at 280 pM (IC50).

With `CC(C)C[C@H](O)[C@H](O)[C@H](CC1CCCCC1)NC(=O)[C@H](Cc1cscn1)NC(=O)C(Cc1ccccc1)NS(=O)(=O)N1CCN(C)CC1` (stereo partly shown) [Example 13C], at human renal renin, the IC50 (commonly the concentration at which inhibition is half-maximal) came to 220 pM.

At human renal renin, `CC(C)C[C@H](O)[C@H](O)[C@H](CC1CCCCC1)NC(=O)[C@H](Cc1cscn1)NC(=O)[C@H](Cc1ccccc1)CS(=O)(=O)N1CCNCC1` [Example 6D, (2S)-2-Benzyl-3-(piperazin-4-ylsulfonyl)propionyl-(L)-(4-Thiazolyl)Ala Amide of (2 S, 3R, 4S)-2-Amin0-1-cyclohexyl-3,4-dihydroxy-6-methylheptane] gave an IC50 of 330 pM.

In turn, `CC(C)C[C@H](O)[C@H](O)[C@H](CC1CCCCC1)NC(=O)[C@H](Cc1cscn1)N(C)C(=O)C(CCc1ccccc1)NS(=O)(=O)N1CCN(C)CC1` (stereo partly drawn) [Example 12F, (4-Methylpiperazin-1-yl) sulfonyl-(Phenylmethyl)alanine-N-Methyl-3-(4-thiazolyl)-L-alanine Amide of (2S,3R,4S)-2-Amino-1-cyclohexyl-3,4-dihydroxy-6-methylheptane] yielded an IC50 against human renal renin of 450 pM.

`CC(C)C[C@H](O)[C@H](O)[C@H](CC1CCCCC1)NC(=O)[C@H](Cc1cscn1)NC(=O)[C@H](Cc1ccccc1)CS(=O)(=O)N1CC[N+](C)([O-])CC1` [Example 10B, (2S)-2-Benzyl-3-(1-methyl-1-oxo-piperazin-4-ylsulfonyl)propionyl-(L)-(4Thiazolyl)Ala Amide of (2S,3R,4S)-2-Amino-1-cyclohexyl-3,4-dihydroxy-6-methylheptane] yielded an IC50 at human renal renin of 300 pM.

Turning to `CC(C)C[C@H](O)[C@H](O)[C@H](CC1CCCCC1)NC(=O)[C@H](Cc1cscn1)NC(=O)[C@H](Cc1ccccc1)CS(=O)(=O)N1CCN(C)CC1.CS(=O)(=O)O` [Example 17B, (2S)-2-Benzyl-3-(1-methyl-piperazin-4-ylsulfonyl) propionyl-(L)-(4-Thiazolyl)Ala Amide of (2S,3R,4S)-2-Amino-1-cyclohexyl-3,4-dihydroxy-6-methylheptane methanesulfonate salt], the “mean arterial pressure (MAP)” value in experiment [1] is given as “effective for reducing blood pressure”. The “plasma renin activity (PRA)” value on renin is given as “inhibits renin in vivo”.
